Laboratory results published in US20090299044A1 (priority 2006, published 2009).
Bridge positions count the residues as written; N and C are the ends. Peptide text beside a SMILES is read from it.

Legend:
human Kv1.1 (HEK293) = molecular target: T1, human Kv1.1 (HEK293) (Homo sapiens, UniProt Q09470); experiment: cell-based
T1 construct: expressed in transfected cells; host or cells: HEK293

human Kv1.3 (CHO) = molecular target: T2, human Kv1.3 (CHO) (Homo sapiens, UniProt P22001); experiment: cell-based
T2 construct: expressed in transfected cells; host or cells: CHO
T2 sequence (P22001 whole entry): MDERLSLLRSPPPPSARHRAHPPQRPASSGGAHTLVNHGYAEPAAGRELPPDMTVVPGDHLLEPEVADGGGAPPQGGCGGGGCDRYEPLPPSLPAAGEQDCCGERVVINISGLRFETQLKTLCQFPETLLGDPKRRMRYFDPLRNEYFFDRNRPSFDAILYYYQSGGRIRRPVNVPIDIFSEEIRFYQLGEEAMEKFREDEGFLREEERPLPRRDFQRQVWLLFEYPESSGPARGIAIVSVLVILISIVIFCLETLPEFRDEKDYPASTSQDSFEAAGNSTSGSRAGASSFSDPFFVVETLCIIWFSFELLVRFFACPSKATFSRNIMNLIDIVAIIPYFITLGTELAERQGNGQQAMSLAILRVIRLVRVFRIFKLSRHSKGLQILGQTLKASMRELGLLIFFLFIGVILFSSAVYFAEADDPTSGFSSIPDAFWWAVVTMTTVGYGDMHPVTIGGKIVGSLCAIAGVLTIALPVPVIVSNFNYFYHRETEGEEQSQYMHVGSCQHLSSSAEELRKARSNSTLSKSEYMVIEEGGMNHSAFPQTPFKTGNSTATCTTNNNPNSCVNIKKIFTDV

T1 sequence (Q09470 whole entry): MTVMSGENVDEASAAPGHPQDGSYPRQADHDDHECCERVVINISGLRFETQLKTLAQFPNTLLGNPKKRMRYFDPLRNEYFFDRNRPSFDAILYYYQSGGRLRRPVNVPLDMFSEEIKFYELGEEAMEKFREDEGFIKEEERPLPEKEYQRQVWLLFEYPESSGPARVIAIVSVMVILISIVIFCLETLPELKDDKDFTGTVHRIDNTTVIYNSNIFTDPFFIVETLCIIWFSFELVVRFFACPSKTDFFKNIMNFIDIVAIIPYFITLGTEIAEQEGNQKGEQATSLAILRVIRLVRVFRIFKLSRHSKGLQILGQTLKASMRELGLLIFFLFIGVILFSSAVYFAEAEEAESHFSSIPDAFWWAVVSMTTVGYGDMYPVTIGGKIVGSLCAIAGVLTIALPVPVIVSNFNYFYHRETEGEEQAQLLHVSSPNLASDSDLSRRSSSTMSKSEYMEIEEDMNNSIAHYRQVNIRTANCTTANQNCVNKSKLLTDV

| SMILES | IC50 (human Kv1.1 (HEK293)) [pM] | IC50 (human Kv1.3 (CHO)) [pM] |
| --- | --- | --- |
| CC[C@H](C)[C@@H]1NC(=O)[C@H](CCCCN)NC(=O)[C@@H](NC(=O)[C@H](CCCCN)NC(=O)[C@@H](NC(=O)[C@H](CC(N)=O)NC(=O)[C@@H](NC(=O)[C@@H](NC(=O)[C@@H](NC(=O)CN)C(C)C)[C@@H](C)CC)[C@@H](C)CC)C(C)C)CSSC[C@@H]2NC(=O)[C@H](CCCCN)NC(=O)CNC(=O)[C@H](CCCNC(=N)N)NC(=O)[C@H](CCCNC(=N)N)NC(=O)[C@H](CCSC)NC(=O)CNC(=O)[C@H](C)NC(=O)[C@H](CCCCN)NC(=O)[C@H](CCCCN)NC(=O)[C@@H]3CSSC[C@@H](C(=O)N[C@H](C(=O)N4CCC[C@H]4C(=O)N[C@@H](CCCCN)C(=O)O)[C@@H](C)O)NC(=O)[C@H](Cc4c[nH]cn4)NC(=O)[C@H](CSSC[C@H](NC(=O)[C@H](CCC(N)=O)NC(=O)[C@H](CCCNC(=N)N)NC(=O)[C@H](CO)NC1=O)C(=O)N[C@@H](CC(C)C)C(=O)N[C@@H](CCC(=O)O)C(=O)N1CCC[C@H]1C(=O)N3)NC(=O)[C@H](CCCCN)NC(=O)CNC(=O)[C@H](CC(N)=O)NC(=O)[C@H](CCSC)NC2=O [F25R] (H-GVIINVKCKISRQCLEPCKKAGMRRGKCMNGKCHCTPK-OH; disulfide 8-28, 14-33, 18-35) | 817 | > 3330 |
| CC[C@H](C)[C@@H]1NC(=O)[C@H](CCCCN)NC(=O)[C@@H](NC(=O)[C@H](CCCCN)NC(=O)[C@@H](NC(=O)[C@H](CC(N)=O)NC(=O)[C@@H](NC(=O)[C@@H](NC(=O)[C@@H](NC(=O)[C@H](C)N)C(C)C)[C@@H](C)CC)[C@@H](C)CC)C(C)C)CSSC[C@@H]2NC(=O)[C@H](CCCCN)NC(=O)CNC(=O)[C@H](Cc3ccccc3)NC(=O)[C@H](CCCNC(=N)N)NC(=O)[C@H](CCSC)NC(=O)CNC(=O)[C@H](C)NC(=O)[C@H](CCCCN)NC(=O)[C@H](CCCCN)NC(=O)[C@@H]3CSSC[C@@H](C(=O)N[C@H](C(=O)N4CCC[C@H]4C(=O)N[C@@H](CCCCN)C(=O)O)[C@@H](C)O)NC(=O)[C@H](Cc4c[nH]cn4)NC(=O)[C@H](CSSC[C@H](NC(=O)[C@H](CCC(N)=O)NC(=O)[C@H](CCCNC(=N)N)NC(=O)[C@H](CO)NC1=O)C(=O)N[C@@H](CC(C)C)C(=O)N[C@@H](CCC(=O)O)C(=O)N1CCC[C@H]1C(=O)N3)NC(=O)[C@H](CCCCN)NC(=O)CNC(=O)[C@H](CC(N)=O)NC(=O)[C@H](CCSC)NC2=O [G1A] (H-AVIINVKCKISRQCLEPCKKAGMRFGKCMNGKCHCTPK-OH; disulfide 8-28, 14-33, 18-35) | 13.9 | 41.1 |
| CC[C@H](C)[C@@H]1NC(=O)[C@H](CCCCN)NC(=O)[C@@H](NC(=O)[C@H](CCCCN)NC(=O)[C@@H](NC(=O)[C@H](CC(N)=O)NC(=O)[C@@H](NC(=O)[C@@H](NC(=O)[C@@H](NC(=O)[C@@H](N)CCC(=O)O)C(C)C)[C@@H](C)CC)[C@@H](C)CC)C(C)C)CSSC[C@@H]2NC(=O)[C@H](CCCCN)NC(=O)CNC(=O)[C@H](Cc3ccccc3)NC(=O)[C@H](CCCNC(=N)N)NC(=O)[C@H](CCSC)NC(=O)CNC(=O)[C@H](C)NC(=O)[C@H](CCCCN)NC(=O)[C@H](CCCCN)NC(=O)[C@@H]3CSSC[C@@H](C(=O)N[C@H](C(=O)N4CCC[C@H]4C(=O)N[C@@H](CCCCN)C(=O)O)[C@@H](C)O)NC(=O)[C@H](Cc4c[nH]cn4)NC(=O)[C@H](CSSC[C@H](NC(=O)[C@H](CCC(N)=O)NC(=O)[C@H](CCCNC(=N)N)NC(=O)[C@H](CO)NC1=O)C(=O)N[C@@H](CC(C)C)C(=O)N[C@@H](CCC(=O)O)C(=O)N1CCC[C@H]1C(=O)N3)NC(=O)[C@H](CCCCN)NC(=O)CNC(=O)[C@H](CC(N)=O)NC(=O)[C@H](CCSC)NC2=O [G1E] (H-EVIINVKCKISRQCLEPCKKAGMRFGKCMNGKCHCTPK-OH; disulfide 8-28, 14-33, 18-35) | 51 | 186 |
| CC[C@H](C)[C@@H]1NC(=O)[C@H](CCCCN)NC(=O)[C@@H](NC(=O)[C@H](CCCCN)NC(=O)[C@@H](NC(=O)[C@H](CC(N)=O)NC(=O)[C@@H](NC(=O)[C@@H](NC(=O)[C@@H](NC(=O)[C@@H](N)CCCNC(=N)N)C(C)C)[C@@H](C)CC)[C@@H](C)CC)C(C)C)CSSC[C@@H]2NC(=O)[C@H](CCCCN)NC(=O)CNC(=O)[C@H](Cc3ccccc3)NC(=O)[C@H](CCCNC(=N)N)NC(=O)[C@H](CCSC)NC(=O)CNC(=O)[C@H](C)NC(=O)[C@H](CCCCN)NC(=O)[C@H](CCCCN)NC(=O)[C@@H]3CSSC[C@@H](C(=O)N[C@H](C(=O)N4CCC[C@H]4C(=O)N[C@@H](CCCCN)C(=O)O)[C@@H](C)O)NC(=O)[C@H](Cc4c[nH]cn4)NC(=O)[C@H](CSSC[C@H](NC(=O)[C@H](CCC(N)=O)NC(=O)[C@H](CCCNC(=N)N)NC(=O)[C@H](CO)NC1=O)C(=O)N[C@@H](CC(C)C)C(=O)N[C@@H](CCC(=O)O)C(=O)N1CCC[C@H]1C(=O)N3)NC(=O)[C@H](CCCCN)NC(=O)CNC(=O)[C@H](CC(N)=O)NC(=O)[C@H](CCSC)NC2=O [G1R] (H-RVIINVKCKISRQCLEPCKKAGMRFGKCMNGKCHCTPK-OH; disulfide 8-28, 14-33, 18-35) | 9.91 | 68.8 |
| CC[C@H](C)[C@@H]1NC(=O)[C@H](CCCCN)NC(=O)[C@@H](NC(=O)[C@H](CCCCN)NC(=O)[C@@H](NC(=O)[C@H](CC(N)=O)NC(=O)[C@@H](NC(=O)[C@@H](NC(=O)[C@@H](NC(=O)CN)C(C)C)[C@@H](C)CC)[C@@H](C)CC)C(C)C)CSSC[C@@H]2NC(=O)[C@H](CCCCN)NC(=O)CNC(=O)[C@H](Cc3ccccc3)NC(=O)[C@H](CCCNC(=N)N)NC(=O)[C@H](CCSC)NC(=O)[C@H](C)NC(=O)[C@H](C)NC(=O)[C@H](CCCCN)NC(=O)[C@H](CCCCN)NC(=O)[C@@H]3CSSC[C@@H](C(=O)N[C@H](C(=O)N4CCC[C@H]4C(=O)N[C@@H](CCCCN)C(=O)O)[C@@H](C)O)NC(=O)[C@H](Cc4c[nH]cn4)NC(=O)[C@H](CSSC[C@H](NC(=O)[C@H](CCC(N)=O)NC(=O)[C@H](CCCNC(=N)N)NC(=O)[C@H](CO)NC1=O)C(=O)N[C@@H](CC(C)C)C(=O)N[C@@H](CCC(=O)O)C(=O)N1CCC[C@H]1C(=O)N3)NC(=O)[C@H](CCCCN)NC(=O)CNC(=O)[C@H](CC(N)=O)NC(=O)[C@H](CCSC)NC2=O [G22A] (H-GVIINVKCKISRQCLEPCKKAAMRFGKCMNGKCHCTPK-OH; disulfide 8-28, 14-33, 18-35) | > 3000 | > 3000 |
| CC[C@H](C)[C@@H]1NC(=O)[C@H](CCCCN)NC(=O)[C@@H](NC(=O)[C@H](CCCCN)NC(=O)[C@@H](NC(=O)[C@H](CC(N)=O)NC(=O)[C@@H](NC(=O)[C@@H](NC(=O)[C@@H](NC(=O)CN)C(C)C)[C@@H](C)CC)[C@@H](C)CC)C(C)C)CSSC[C@@H]2NC(=O)[C@H](CCCCN)NC(=O)CNC(=O)[C@H](Cc3ccccc3)NC(=O)[C@H](CCCNC(=N)N)NC(=O)[C@H](CCSC)NC(=O)[C@H](CCC(=O)O)NC(=O)[C@H](C)NC(=O)[C@H](CCCCN)NC(=O)[C@H](CCCCN)NC(=O)[C@@H]3CSSC[C@@H](C(=O)N[C@H](C(=O)N4CCC[C@H]4C(=O)N[C@@H](CCCCN)C(=O)O)[C@@H](C)O)NC(=O)[C@H](Cc4c[nH]cn4)NC(=O)[C@H](CSSC[C@H](NC(=O)[C@H](CCC(N)=O)NC(=O)[C@H](CCCNC(=N)N)NC(=O)[C@H](CO)NC1=O)C(=O)N[C@@H](CC(C)C)C(=O)N[C@@H](CCC(=O)O)C(=O)N1CCC[C@H]1C(=O)N3)NC(=O)[C@H](CCCCN)NC(=O)CNC(=O)[C@H](CC(N)=O)NC(=O)[C@H](CCSC)NC2=O [G22E] (H-GVIINVKCKISRQCLEPCKKAEMRFGKCMNGKCHCTPK-OH; disulfide 8-28, 14-33, 18-35) | 2.56 | 13.9 |
| CC[C@H](C)[C@@H]1NC(=O)[C@H](CCCCN)NC(=O)[C@@H](NC(=O)[C@H](CCCCN)NC(=O)[C@@H](NC(=O)[C@H](CC(N)=O)NC(=O)[C@@H](NC(=O)[C@@H](NC(=O)[C@@H](NC(=O)CN)C(C)C)[C@@H](C)CC)[C@@H](C)CC)C(C)C)CSSC[C@@H]2NC(=O)[C@H](CCCCN)NC(=O)CNC(=O)[C@H](Cc3ccccc3)NC(=O)[C@H](CCCNC(=N)N)NC(=O)[C@H](CCSC)NC(=O)[C@H](CCCNC(=N)N)NC(=O)[C@H](C)NC(=O)[C@H](CCCCN)NC(=O)[C@H](CCCCN)NC(=O)[C@@H]3CSSC[C@@H](C(=O)N[C@H](C(=O)N4CCC[C@H]4C(=O)N[C@@H](CCCCN)C(=O)O)[C@@H](C)O)NC(=O)[C@H](Cc4c[nH]cn4)NC(=O)[C@H](CSSC[C@H](NC(=O)[C@H](CCC(N)=O)NC(=O)[C@H](CCCNC(=N)N)NC(=O)[C@H](CO)NC1=O)C(=O)N[C@@H](CC(C)C)C(=O)N[C@@H](CCC(=O)O)C(=O)N1CCC[C@H]1C(=O)N3)NC(=O)[C@H](CCCCN)NC(=O)CNC(=O)[C@H](CC(N)=O)NC(=O)[C@H](CCSC)NC2=O [G22R] (H-GVIINVKCKISRQCLEPCKKARMRFGKCMNGKCHCTPK-OH; disulfide 8-28, 14-33, 18-35) | 3.49 | 23.7 |
| CC[C@H](C)[C@@H]1NC(=O)[C@H](CCCCN)NC(=O)[C@@H](NC(=O)[C@H](CCCCN)NC(=O)[C@@H](NC(=O)[C@H](CC(N)=O)NC(=O)[C@@H](NC(=O)[C@@H](NC(=O)[C@@H](NC(=O)CN)C(C)C)[C@@H](C)CC)[C@@H](C)CC)C(C)C)CSSC[C@@H]2NC(=O)[C@H](CCCCN)NC(=O)[C@H](C)NC(=O)[C@H](Cc3ccccc3)NC(=O)[C@H](CCCNC(=N)N)NC(=O)[C@H](CCSC)NC(=O)CNC(=O)[C@H](C)NC(=O)[C@H](CCCCN)NC(=O)[C@H](CCCCN)NC(=O)[C@@H]3CSSC[C@@H](C(=O)N[C@H](C(=O)N4CCC[C@H]4C(=O)N[C@@H](CCCCN)C(=O)O)[C@@H](C)O)NC(=O)[C@H](Cc4c[nH]cn4)NC(=O)[C@H](CSSC[C@H](NC(=O)[C@H](CCC(N)=O)NC(=O)[C@H](CCCNC(=N)N)NC(=O)[C@H](CO)NC1=O)C(=O)N[C@@H](CC(C)C)C(=O)N[C@@H](CCC(=O)O)C(=O)N1CCC[C@H]1C(=O)N3)NC(=O)[C@H](CCCCN)NC(=O)CNC(=O)[C@H](CC(N)=O)NC(=O)[C@H](CCSC)NC2=O [G26A] (H-GVIINVKCKISRQCLEPCKKAGMRFAKCMNGKCHCTPK-OH; disulfide 8-28, 14-33, 18-35) | 733 | 711 |
